From patent publication US20260125400A1, “TYK2 DEGRADERS AND USES THEREOF” (Kymera Therapeutics, Inc., priority 2023, published 2026) come the findings set out here.

SMILES strings stand for the structures.

This assay concerns the target T1, TYK2 (Homo sapiens, UniProt P29597).
T1 construct: Degradation of TYK2 in cells was quantitatively measured using Meso Scale Discovery (MSD) technology; endogenous in cells; host or cells: OCI-LY10
Nature of the assay: TYK2 MSD degradation in OCI-LY10 cells. The assay is classed as cell-based. The note with it: OCI-LY10 cells, 4 to 24 hours incubation; for DC50: read-out: TYK2 MSD OCI-LY10 Rel-DC50. Put shortly:
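OCI-LY10 cells were treated with 9-dose 1:3 series (top 1 to 10 μM final) for 4 to 24 hours at 37° C. Lysate TYK2 quantified by MSD sandwich immunoassay; DC50 and Dmax from four-parameter inhibitor vs. response fit.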

T1 sequence (P29597 whole entry): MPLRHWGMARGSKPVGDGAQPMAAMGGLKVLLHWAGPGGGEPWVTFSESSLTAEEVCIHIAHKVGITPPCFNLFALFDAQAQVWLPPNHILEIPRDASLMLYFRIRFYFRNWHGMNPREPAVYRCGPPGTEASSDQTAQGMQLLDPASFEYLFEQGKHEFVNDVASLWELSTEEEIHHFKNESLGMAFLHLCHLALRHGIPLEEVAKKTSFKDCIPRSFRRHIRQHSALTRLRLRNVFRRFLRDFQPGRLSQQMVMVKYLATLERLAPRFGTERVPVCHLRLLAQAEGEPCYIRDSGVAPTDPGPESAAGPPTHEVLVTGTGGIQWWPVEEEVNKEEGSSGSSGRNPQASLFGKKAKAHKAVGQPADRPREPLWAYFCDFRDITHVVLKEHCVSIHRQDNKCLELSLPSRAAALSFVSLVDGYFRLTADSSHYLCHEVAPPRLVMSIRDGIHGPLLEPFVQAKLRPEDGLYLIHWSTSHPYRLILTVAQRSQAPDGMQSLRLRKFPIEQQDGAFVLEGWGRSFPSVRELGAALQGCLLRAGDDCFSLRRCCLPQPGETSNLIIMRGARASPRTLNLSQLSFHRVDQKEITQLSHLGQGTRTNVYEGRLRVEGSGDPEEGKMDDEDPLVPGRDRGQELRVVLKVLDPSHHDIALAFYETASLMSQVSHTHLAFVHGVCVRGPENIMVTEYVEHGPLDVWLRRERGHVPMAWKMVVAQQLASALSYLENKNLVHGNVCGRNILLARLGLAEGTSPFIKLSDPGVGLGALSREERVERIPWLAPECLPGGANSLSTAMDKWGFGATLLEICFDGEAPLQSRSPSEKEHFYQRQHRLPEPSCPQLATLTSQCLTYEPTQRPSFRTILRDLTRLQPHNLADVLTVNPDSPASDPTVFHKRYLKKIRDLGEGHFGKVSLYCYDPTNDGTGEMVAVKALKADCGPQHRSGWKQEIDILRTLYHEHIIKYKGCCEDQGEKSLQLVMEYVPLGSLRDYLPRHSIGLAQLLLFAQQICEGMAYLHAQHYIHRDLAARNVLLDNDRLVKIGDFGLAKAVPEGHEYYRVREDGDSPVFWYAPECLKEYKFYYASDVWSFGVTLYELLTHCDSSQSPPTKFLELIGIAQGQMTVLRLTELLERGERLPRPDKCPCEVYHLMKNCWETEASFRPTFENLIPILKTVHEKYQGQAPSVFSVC

One may read the DC50 as the concentration at which degradation of the target reaches its halfway point. Turning to `CNc1cc(N2CCc3c(-c4ncc(CN5CCC6(CCN(C(=O)c7cc(C)c(Cl)c(N8CCC(=O)NC8=O)c7)CC6)C(F)(F)C5)cc4Cl)cccc32)nn2c(C(=O)N[C@@H]3C[C@@H]3F)cnc12` [I-746], the “TYK2 MSD OCI-LY10 Dmax %” value is listed as “B (B (90 to >75%))” and the DC50 is under 10 nM.

As for `CNc1cc(N2CCc3c(-c4ncc(CN5CC6(CCN(C(=O)c7cc(C)c(Cl)c(N8CCC(=O)NC8=O)c7)CC6(F)F)C5)cc4Cl)cccc32)nn2c(C(=O)N[C@@H]3C[C@@H]3F)cnc12` [I-747], the “TYK2 MSD OCI-LY10 Dmax %” value was “B (B (90 to >75%))” and the DC50 is under 10 nM.

For `CNc1cc(N2CCc3c(CN4CCC(N5CCC6(CCN(C(=O)c7cc(C)c(OC)c(N8CCC(=O)NC8=O)c7)CC6)CC5)C(F)(F)C4)cccc32)nn2c(C(=O)N[C@@H]3C[C@@H]3F)cnc12` (stereo partly drawn) [I-749], the “TYK2 MSD OCI-LY10 Dmax %” value was “B (B (90 to >75%))” and the DC50 was under 10 nM.

Consider `CNc1cc(N2CCc3c2ccc(F)c3CN2CCC(N3CCC4(CCN(C(=O)c5ccc(Cl)c(N6CCC(=O)NC6=O)c5)CC4)CC3)C(F)(F)C2)nn2c(C(=O)N[C@@H]3C[C@@H]3F)cnc12` (stereo partly drawn) [I-750], for which the “TYK2 MSD OCI-LY10 Dmax %” value was “A (A (>90%))” and the DC50 is under 1 nM.

In the case of `CNc1cc(N2CCc3c(CN4CCC(CN5CCC(N(C)c6ccc(Cl)c(N7CCC(=O)NC7=O)c6)CC5)C(F)(F)C4)cccc32)nn2c(C(=O)N[C@@H]3C[C@@H]3F)cnc12` (stereo partly drawn) [I-751], the “TYK2 MSD OCI-LY10 Dmax %” value is “B (B (90 to >75%))” and the DC50 is under 10 nM.

Turning to `CNc1cc(N2CCc3c(-c4ccc(CN5CC6(CCC(N(C)c7ccc(Cl)c(N8CCC(=O)NC8=O)c7)CC6)C5)cn4)cccc32)nn2c(C(=O)N[C@@H]3CC[C@H]3OC)cnc12` [I-752], the “TYK2 MSD OCI-LY10 Dmax %” value is given as “B (B (90 to >75%))” and the DC50 is under 10 nM.

With `CNc1cc(N2CCc3c(CN4CCC(N5CC(CC6CCN(C(=O)c7ccc(Cl)c(N8CCC(=O)NC8=O)c7)CC6)C5)C(F)(F)C4)cccc32)nn2c(C(=O)N[C@@H]3C[C@@H]3F)cnc12` (stereo partly drawn) [I-753], the “TYK2 MSD OCI-LY10 Dmax %” value is “A (A (>90%))” and the DC50 is under 1 nM.

On to `CNc1cc(N2CCc3c(-c4ccc(CN5CC6(CCN(C(=O)c7cc(Cl)c(C)c(N8CCC(=O)NC8=O)c7)CC6(F)F)C5)cn4)cccc32)nn2c(C(=O)N[C@@H]3CC[C@H]3OC)cnc12` [I-754], for which the “TYK2 MSD OCI-LY10 Dmax %” value is given as “A (A (>90%))” and the DC50 is under 1 nM.

Regarding `CNc1cc(N2CCc3c2ccc(C)c3CN2CCC(N3CCC4(CCN(C(=O)c5ccc(Cl)c(N6CCC(=O)NC6=O)c5)CC4)CC3)C(F)(F)C2)nn2c(C(=O)N[C@@H]3C[C@@H]3F)cnc12` (stereo partly drawn) [I-755], the “TYK2 MSD OCI-LY10 Dmax %” value was “C (C (75 to 50%))” and the DC50 was in the range of 10 to 100 nM.

Consider `CNc1cc(N2CCc3c(-c4ncc(CN5CC6(CCN(C(=O)c7cc(C)c(Cl)c(N8CCC(=O)NC8=O)c7)CC6(F)F)C5)cc4C)cccc32)nn2c(C(=O)N[C@@H]3C[C@@H]3F)cnc12` [I-756], for which the “TYK2 MSD OCI-LY10 Dmax %” value is “B (B (90 to >75%))” and the DC50 is under 10 nM.

As to `CNc1cc(N2CCc3c(-c4ccc(CN5CCC6(CCN(C(=O)c7cc(C)c(OC)c(N8CCC(=O)NC8=O)c7)CC6)C(F)(F)C5)cn4)cccc32)nn2c(C(=O)N[C@@H]3C[C@@H]3F)cnc12` [I-757], the “TYK2 MSD OCI-LY10 Dmax %” value was “B (B (90 to >75%))” and the DC50 is under 10 nM.

Regarding `CNc1cc(N2CCc3c(CN4CCC(N5CCC(N(C)c6ccc(Cl)c(N7CCC(=O)NC7=O)c6)CC5)C(F)(F)C4)cccc32)nn2c(C(=O)N[C@@H]3C[C@@H]3F)cnc12` (stereo partly drawn) [I-758], the “TYK2 MSD OCI-LY10 Dmax %” value is given as “B (B (90 to >75%))” and the DC50 was under 10 nM.

Regarding `CNc1cc(N2CCc3c(-c4cnc(CC5CC6(CCN(C(=O)c7cc(C)c(Cl)c(N8CCC(=O)NC8=O)c7)CC6)C5)cn4)cccc32)nn2c(C(=O)N[C@@H]3C[C@@H]3F)cnc12` [I-760], the “TYK2 MSD OCI-LY10 Dmax %” value is “B (B (90 to >75%))” and the DC50 was under 10 nM.

Take `CNc1cc(N2CCc3c(CN4CCC(CN5CCN(C(=O)c6ccc(Cl)c(N7CCC(=O)NC7=O)c6)CC5)C(F)(F)C4)cccc32)nn2c(C(=O)N[C@@H]3C[C@@H]3F)cnc12` (stereo partly drawn) [I-761]: the “TYK2 MSD OCI-LY10 Dmax %” value is “B (B (90 to >75%))” and the DC50 is under 10 nM.

On to `CNc1cc(N2CCc3c(-c4ncc(CN5CCC6(CCN(C(=O)c7cc(C)c(Cl)c(N8CCC(=O)NC8=O)c7)CC6)C(F)(F)C5)cc4C)cccc32)nn2c(C(=O)N[C@@H]3C[C@@H]3F)cnc12` [I-763], for which the “TYK2 MSD OCI-LY10 Dmax %” value was “B (B (90 to >75%))” and the 50% degradation concentration (DC50) was under 10 nM.

Regarding `CNc1cc(N2CCc3c(CN4CCC(N5CCC6(CCN(C(=O)c7cc(Cl)c(OC)c(N8CCC(=O)NC8=O)c7)CC6)CC5)C(F)(F)C4)cccc32)nn2c(C(=O)N[C@@H]3C[C@@H]3F)cnc12` (stereo partly drawn) [I-764], the “TYK2 MSD OCI-LY10 Dmax %” value is listed as “B (B (90 to >75%))” and the DC50 is under 10 nM.

As for `CNc1cc(N2CCc3c(CN4CCC(N5CCC6(CCN(C(=O)c7cc(N8CCC(=O)NC8=O)c(Cl)cc7C)CC6)CC5)C(F)(F)C4)cccc32)nn2c(C(=O)N[C@@H]3C[C@@H]3F)cnc12` (stereo partly drawn) [I-765], the “TYK2 MSD OCI-LY10 Dmax %” value is “B (B (90 to >75%))” and the DC50 is under 10 nM.

As to `CNc1cc(N2CCc3c(CN4CCC(CN5CCC6(CC5)CCN(C(=O)c5ccc(Cl)c(N7CCC(=O)NC7=O)c5)CC6)C(F)(F)C4)cccc32)nn2c(C(=O)N[C@@H]3C[C@@H]3F)cnc12` (stereo partly drawn) [I-766], the “TYK2 MSD OCI-LY10 Dmax %” value is “A (A (>90%))” and the DC50 was under 1 nM.

As for `CNc1cc(-c2cn(C3CCN(C4CCN(C(=O)c5ccc(Cl)c(N6CCC(=O)NC6=O)c5)CC4)CC3)c3ccccc23)nn2c(C(=O)N[C@@H]3C[C@@H]3F)cnc12` [I-767], the “TYK2 MSD OCI-LY10 Dmax %” value is “D (D (<50%))” and the DC50 is over 100 nM.

For the molecule `CNc1cc(-c2cn(CC3CCN(C4CCN(C(=O)c5ccc(Cl)c(N6CCC(=O)NC6=O)c5)CC4)CC3)c3ccccc23)nn2c(C(=O)N[C@@H]3C[C@@H]3F)cnc12` [I-768], the “TYK2 MSD OCI-LY10 Dmax %” value is “D (D (<50%))” and the DC50 was over 100 nM.

On to `CNc1cc(N2CCc3c(CN4CCC(N5CCC6(CCN(C(=O)c7cc(F)c(OC)c(N8CCC(=O)NC8=O)c7)CC6)CC5)C(F)(F)C4)cccc32)nn2c(C(=O)N[C@@H]3C[C@@H]3F)cnc12` (stereo partly drawn) [I-769], for which the “TYK2 MSD OCI-LY10 Dmax %” value is on record as “B (B (90 to >75%))” and the half-maximal degradation concentration (DC50) was under 10 nM.

As for `CNc1cc(N2CCc3c(CN4CCC(CN5CCC(N6CCN(C(=O)c7ccc(Cl)c(N8CCC(=O)NC8=O)c7)CC6)CC5)C(F)(F)C4)cccc32)nn2c(C(=O)N[C@@H]3C[C@@H]3F)cnc12` (stereo partly drawn) [I-770], the “TYK2 MSD OCI-LY10 Dmax %” value was “B (B (90 to >75%))” and the DC50 is under 10 nM.

For `CNc1cc(-c2cn(CC3CCN(CCC4CCN(C(=O)c5ccc(Cl)c(N6CCC(=O)NC6=O)c5)CC4)CC3)c3ccccc23)nn2c(C(=O)N[C@@H]3C[C@@H]3F)cnc12` [I-771], the “TYK2 MSD OCI-LY10 Dmax %” value is “B (B (90 to >75%))” and the DC50 is under 10 nM.

As for `CNc1cc(-c2cn(CC3CCN(CC4CCN(C(=O)c5ccc(Cl)c(N6CCC(=O)NC6=O)c5)CC4)CC3)c3ccccc23)nn2c(C(=O)N[C@@H]3C[C@@H]3F)cnc12` [I-773], the “TYK2 MSD OCI-LY10 Dmax %” value is recorded as “D (D (<50%))” and the DC50 was over 100 nM.

`CNc1cc(N2CCc3c(CN4CCC(N5CCC6(CCN(C(=O)c7cc(C)c(Cl)c(N8CCC(=O)NC8=O)c7)CC6)CC5)C(F)(F)C4)cccc32)nc2c(C(=O)N[C@@H]3C[C@@H]3F)cnn12` (stereo partly drawn) [I-775]: the “TYK2 MSD OCI-LY10 Dmax %” value is “A (A (>90%))” and the DC50 is under 1 nM.

For `CNc1cc(N2CCc3c(-c4ccc(CN5CCC6(CCN(C(=O)c7cc(F)c(OC)c(N8CCC(=O)NC8=O)c7)CC6)C(F)(F)C5)cn4)cccc32)nn2c(C(=O)N[C@@H]3C[C@@H]3F)cnc12` [I-776], the “TYK2 MSD OCI-LY10 Dmax %” value is given as “B (B (90 to >75%))” and the DC50 is under 10 nM.

Take `CNc1cc(-c2cn(C3CCN(CCC4CCN(C(=O)c5ccc(Cl)c(N6CCC(=O)NC6=O)c5)CC4)CC3)c3ccccc23)nn2c(C(=O)N[C@@H]3C[C@@H]3F)cnc12` [I-779]: the “TYK2 MSD OCI-LY10 Dmax %” value is on record as “D (D (<50%))” and the DC50 was over 100 nM.

As for `CNc1cc(N2CCc3c(CN4CCC(N5CCC(C6CCN(C(=O)c7ccc(Cl)c(N8CCC(=O)NC8=O)c7)CC6)CC5)C(F)(F)C4)cccc32)nn2c(C(=O)N[C@@H]3C[C@@H]3F)cnc12` (stereo partly drawn) [I-780], the “TYK2 MSD OCI-LY10 Dmax %” value is “A (A (>90%))” and the DC50 is under 1 nM.

For the molecule `CNc1cc(N2CCc3c(N4CC(CN5CCC(N6CCN(C(=O)c7ccc(Cl)c(N8CCC(=O)NC8=O)c7)CC6)C(F)(F)C5)C4)cccc32)nn2c(C(=O)N[C@@H]3C[C@@H]3F)cnc12` (stereo partly drawn) [I-781], the “TYK2 MSD OCI-LY10 Dmax %” value was “D (D (<50%))” and the half-maximal degradation concentration (DC50) is over 100 nM.

In the case of `CNc1cc(N2CCc3c(-c4ccc(CN5CC6(CCN(C(=O)c7cc(N8CCC(=O)NC8=O)c(C)cn7)CC6)C5)cn4)cccc32)nn2c(C(=O)N[C@@H]3C[C@@H]3F)cnc12` [I-782], the “TYK2 MSD OCI-LY10 Dmax %” value is “A (A (>90%))” and the DC50 is under 1 nM.

On to `CNc1cc(N2CCc3c(N4CC(CN5CCC6(CCN(C(=O)c7ccc(Cl)c(N8CCC(=O)NC8=O)c7)CC6)C(F)(F)C5)C4)cccc32)nn2c(C(=O)N[C@@H]3C[C@@H]3F)cnc12` [I-783], for which the “TYK2 MSD OCI-LY10 Dmax %” value is “B (B (90 to >75%))” and the DC50 was under 10 nM.

Turning to `CNc1cc(N2CCc3c(-c4ccc(CN5CCC(N6CCC(N(C)c7ccc(Cl)c(N8CCC(=O)NC8=O)c7)CC6)C(F)(F)C5)cn4)cccc32)nn2c(C(=O)N[C@@H]3C[C@@H]3F)cnc12` (stereo partly drawn) [I-784], the “TYK2 MSD OCI-LY10 Dmax %” value is “C (C (75 to 50%))” and the DC50 was 10 to 100 nM.

For `CNc1cc(N2CCc3c(N4CC(CN5CCC(N6CCC7(CCN(C(=O)c8ccc(Cl)c(N9CCC(=O)NC9=O)c8)CC7)CC6)C(F)(F)C5)C4)cccc32)nn2c(C(=O)N[C@@H]3C[C@@H]3F)cnc12` (stereo partly drawn) [I-785], the “TYK2 MSD OCI-LY10 Dmax %” value is “B (B (90 to >75%))” and the DC50 is under 10 nM.
